{"source": "patent US8298582B2", "about": "“Polysaccharide-based impregnated solid material with improved stability, processes for the preparation thereof and impregnating solutions used” (Hydro-Quebec, priority 2006, dated 2012)", "key": {"[1]": {"test": "Resistance to leaching, modified AWPA procedure E11-06 (5 faces protected)", "format": "physicochemical", "procedure": "This technique is based on AWPA protocol E11-06. The blocks are soaked in demineralized water at ambient temperature. Water samples are taken regularly and an analysis by ICP spectrometry is carried out (after dilution of the solution by a factor of 250) in order to evaluate the amount of boron present in the solution. The results are represented in FIGS. 5 and 5′."}, "Gleophyllum trabeum": {"test_system": "Gleophyllum trabeum", "test": "Soil-block culture test, AWPA protocol E10-06, on leached treated wood blocks", "format": "cell-based", "details": "after 20 weeks of exposure, red pine sapwood blocks leached one week before the test", "procedure": "(§1) Tests for evaluating the degradation-resistance of the wood according to various treatments were carried out by following AWPA protocol E10-06. These tests were carried out using two brown rots: Postia placenta and Gleophyllum trabeum.\n(§2) These two preparations are used to treat blocks of 19 mm×19 mm×19 mm of red pine sapwood by means of a partial vacuum of −65 cmHg maintained for 30 minutes. This type of solution forms a gel in the cells of the wood after a period of one hour. In order to accelerate the crosslinking process and to allow drying, the blocks are heated overnight at 60° C.\n(§3) In order to validate the capacity of our treatment to retain the boron in the wood and to play its role of wood-preserving agent, the treated blocks were soaked for one week in demineralized water in order to extract all traces of non-chelated boric acid or DOT.\n(§4) After drying, the blocks were subjected to the laboratory “soil-block” culture test, strictly according to AWPA protocol E10-06."}, "Postia placenta": {"test_system": "Postia placenta", "test": "Soil-block culture test, AWPA protocol E10-06, on leached treated wood blocks", "format": "cell-based", "details": "after 20 weeks of exposure, red pine sapwood blocks leached one week before the test", "procedure": "as §1, §2, §3, §4"}}}
{"molecule": "OB(O)O", "note": "[Boric acid, boric acid]", "values": [{"measurement": "loss of boron", "setting": "[1]; over a period of 8 days, red pine sapwood cubes", "result": 67, "unit": "%"}, {"measurement": "loss of boron", "setting": "[1]; over a period of 15 days", "result": 32, "unit": "%"}, {"measurement": "Weight loss (%) Gleophyllum trabeum", "setting": "Gleophyllum trabeum", "result": 67.5, "unit": "%"}, {"measurement": "Weight loss (%) Gleophyllum trabeum", "setting": "Gleophyllum trabeum; listed as boric acid", "result": "substantial loss"}, {"measurement": "Weight loss (%) Postia placenta", "setting": "Postia placenta", "result": 67.5, "unit": "%"}, {"measurement": "Weight loss (%) Postia placenta", "setting": "Postia placenta; listed as boric acid", "result": "substantial loss"}]}
